Experimental data from patent publication US20160089377A1, “THERAPEUTIC TARGETING OF THE MTOR PATHWAY IN NEURODEVELOPMENTAL AND NEUROPSYCHIATRIC DISEASE” (THE TRUSTEES OF COLUMBIA UNIVERISTY IN THE CITY OF NEW YORK, priority 2013, published 2016).
“Also recorded” adds a separate entry of the source.

Tests used:
Type in all cases: in vivo
[1] = tested on: phosphorylated ribosomal protein S6 (pS6); test: Immunoblot of phosphorylated S6 in cortex after WYE125132 treatment; conditions: cortex of Cntnap2-/- and Cntnap2+/- mice, 14 consecutive days gavage 10 mg/kg
Procedure: Cntnap2 mutant and WT mice were obtained from heterozygous crossings and were born with the expected Mendelian frequencies. The three obtained genotypes were housed together. Mice were treated with p.o. gavaging once per day with either WYE125132 (10 mg/kg) or vehicle. All procedures involving animals were performed in accordance with the Columbia University/New York State Psychiatric Institute animal research committee.
(§1) euthanized. For the electrophysiology and western blot rescue experiments, adult mice were gavaged for 14 consecutive days after which they were euthanized.
Western blot analysis of mouse brain tissue and immunocytochemistry in human brain tissue was performed using standard methods.
We examined whether we can reverse the dramatic enlargement of the pyramidal cell somata by targeting the mTOR overactivation. To this end, mice were gavaged daily with WYE125132 from P12 until P33-36 after which their brains were harvested for further analysis.

[2] = tested on: layer V pyramidal neurons; test: Spike-timing-dependent LTP, whole-cell recordings from slices of treated adult mice
Procedure: (§2) All mice were treated with either WYE125132 or vehicle for a period of 2 weeks after which the animals were euthanized and thalamocortical slices were prepared. Briefly, animals were anesthetized, decapitated and the brain quickly placed into ice-cold dissection buffer containing (in mM): 75 sucrose, 87 NaCl, 2.5 KCl, 1.25 NaH2PO4, 0.5 CaCl2, 7 MgCl2 6H2O, 25 NaHCO3, 10 dextrose, bubbled with 95% O2/5% CO2 (pH 7.4). Slices (400 μm) were prepared with a vibratome (Leica, VT1200S), placed in 33-35° C. for artificial cerebrospinal fluid (ACSF, in mM: 124 NaCl, 2.5 KCl, 1.25 NaH2PO4, 2.5 CaCl2, 1.5 MgSO4 7H2O, 26 NaHCO3, and 10 dextrose) for <30 min; then returned to room temperature >1 hr before use. Slices were then transferred to the recording chamber and perfused (2.0-2.5 ml min-1) with oxygenated ACSF at 33-35° C. and given 30 min to stabilize. Somatic whole-cell recordings were made from layer 5 pyramidal cells in voltage and current clamp mode with a Multiclamp 700B amplifier (Molecular Devices). Selection was based on morphology and electrophysiological criteria. Patch pipettes (3-8MΩ) contained a current clamp solution. Data were filtered at 2 kHz, digitized at 10 kHz and analyzed with Clampfit. Cells were excluded from analysis if Ri or Rs changed by >25% over the course of the recording. Excitatory post-synaptic currents or potentials (EPSCs/Ps) were evoked by extracellular stimulation (0.01-1 ms, 1-10V) with a 4×1 array of electrodes placed in layer 4, and straddling the patched layer 5 neuron. Across mice we compared spontaneous and evoked inhibitory responses by clamping the membrane potential of the cell to sub-threshold levels. Furthermore, we compared inhibition generated by each stimulation electrode, to the corresponding amount of excitation when the cell was held at −80 mV. Lastly, we tested Spike-Timing Dependent Plasticity (STDP).
as §1
Whole cell recordings were made from layer V pyramidal cells of the temporal cortex. Focal extracellular stimulation was applied and excitatory and inhibitory currents were measured across various stimulation intensities to assess E:I balance. For plasticity experiments, extracellular stimulation was paired with postsynaptic action potentials (elicited by current injection via the recording electrode) less than 10 ms after the onset of the EPSP 60 times at 0.1 hz. Baseline strength was compared to synaptic strength 6-15 mins after spike pairing.
We investigated whether we could reverse the impairment in neuronal network activity and plasticity by targeting the overactivation of the mTOR pathway with WYE125132. […]

[3] = tested on: layer V pyramidal neurons; test: Excitation-inhibition correlation, whole-cell recordings from slices of treated adult mice
Procedure: as §2, §1
Whole cell recordings were made from layer V pyramidal cells of the temporal cortex. Focal extracellular stimulation was applied and excitatory and inhibitory currents were measured across various stimulation intensities to assess E:I balance. […]
recorded cell. […] We assessed this relation over multiple inputs onto the recorded postsynaptic neuron from different regions of the cortical brain slice, by systematically varying the intensity of extracellular stimulation, such that higher intensities evoke responses from larger subpopulations of presynaptic inputs (House et al., 2011). […]

[4] = Caspr2-/- / Cntnap2 mutant mice treated with WYE125132 for 2 weeks
[5] = WT littermates treated with WYE125132 for 2 weeks

CNC(=O)Nc1ccc(-c2nc(N3CC4CCC(C3)O4)c3cnn(C4CCC5(CC4)OCCO5)c3n2)cc1 [WYE125132]
phosphorylation of S6 (Phospho-S6: S6) [1]: reverses phosphorylation of S6 to levels observed in WT littermates; also recorded: completely reversed
LTP induction (in words) [2, 4]: robust LTP; also recorded: successfully induced LTP
LTP induction (in words) [2, 5]: robust LTP
synaptic modification after spike pairing (example recording) ([2]; WYE125132-treated Cntnap2-/- mouse, single example whole-cell recording): 35.1 % increase
synaptic modification after spike pairing (LTP summary) ([2]; WYE125132-treated Cntnap2-/- mutant mice, n=8, 6-15 min after pairing, error s.e.m.): 45.4±16.4 % increase
correlation between excitation and inhibition (in words) [3, 4]: high correlation between excitation and inhibition
correlation between excitation and inhibition (in words) [3, 5]: high correlation between excitation and inhibition
linear correlation coefficient r between excitation and inhibition (representative recording) ([3]; WYE125132-treated Cntnap2-/- mouse, single representative recording): 0.72
linear correlation coefficient r between excitation and inhibition (summary) ([3]; WYE125132-treated Cntnap2-/- mutant mice, 14 days gavage, n=12, error s.e.m.): 0.43±0.08
